Data from US7700619B2, “2-methoxymethyl-3-(3,4-dichlorophenyl)-8-azabicyclo[3.2.1]octane tartrate salts” (Neurosearch A/S, priority 2003, dated 2010).

Test: Physical stability of the polymorphic form on repeated preparation
Type: physicochemical
Settings: successive preparations of Form IV turned out as mixtures of Form IV and Form III
Protocol: The form was prepared by suspending a freshly prepared Form II in water free ethanol. Separation of the suspended matter was conducted after 24 hours and subsequent drying under vacuum.
Form IV can also be obtained from suspension of Form III by the same procedure as described using Form II.
Successive preparations of Form IV turned out as mixtures of Form IV and Form III, indicating difficulties in producing Form IV

COC[C@@H]1[C@@H](c2ccc(Cl)c(Cl)c2)C[C@@H]2CC[C@H]1N2.O=C(O)C(O)C(O)C(=O)O [Form IV, (1R,2R,3S,5S)-2-methoxymethyl-3-(3,4-dichlorophenyl)-8-azabicyclo[3.2.1]octane L-tartrate anhydrate (Form IV)]
physical stability of the crystal form: physically metastable
